Test results reported in the NIST ThermoML archive (doi:10.1021/je8005979).
± gives the expanded uncertainty stated by the source.

Settings: Crystal; visual observation

Normal melting temperature: 62.7 ± 0.4 °C
SMILES: CCCCCCCCCCCCCCCC(=O)O [hexadecanoic acid]
